Test results taken from article PMC2752672 (Biochemistry, 2009).
Where two headings read alike, the source gives them in different places.

How the values were obtained:
[1] = molecular target: T1, KOR (Homo sapiens, UniProt P41145); type: binding; conditions: read-out: Ki a
[2] = molecular target: T1, KOR; type: binding; conditions: read-out: Ki b
[3] = molecular target: T1, KOR; assay: biochemical; type: biochemical; conditions: for EC50: read-out: EC50 c
[4] = system: C57BL/6J mice; type: in vivo, mouse; conditions: for baseline startle activity: 120-dB stimulus, all doses; for prepulse-dependent PPI: all prepulse intensities
[5] = molecular target: T1, KOR; assay: biochemical; type: binding
[6] = storage stability of the compound; conditions: room temperature / prolonged storage

T1 sequence (P41145 whole entry): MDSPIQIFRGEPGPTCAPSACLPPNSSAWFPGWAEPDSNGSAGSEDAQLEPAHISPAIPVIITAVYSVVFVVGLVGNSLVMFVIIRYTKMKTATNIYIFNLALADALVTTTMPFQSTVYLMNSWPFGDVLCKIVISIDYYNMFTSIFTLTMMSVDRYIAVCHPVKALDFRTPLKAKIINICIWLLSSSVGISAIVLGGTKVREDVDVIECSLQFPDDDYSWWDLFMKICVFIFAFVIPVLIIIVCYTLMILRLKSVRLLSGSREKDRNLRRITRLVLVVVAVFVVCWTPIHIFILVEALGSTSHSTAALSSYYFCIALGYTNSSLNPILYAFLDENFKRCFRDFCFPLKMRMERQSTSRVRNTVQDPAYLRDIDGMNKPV

Structure (SMILES): COC(=O)C1CC(OC(=O)C(C)Cl)C(=O)C2C1(C)CCC1C(=O)OC(c3ccoc3)CC12C (single isomer, unassigned) [RB-55-1, (22-S)-22-Chloro-22-methylsalvinorin A]
- Ki [1]: 30 ± 15 nM
- Ki [2]: 269 ± 48 nM
- Relative Emax [3]: 99 +/− 12%
- EC50 [3]: 160 nM

Structure (SMILES): COC(=O)C1CC(OC(=O)C(C)Cl)C(=O)C2C1(C)CCC1C(=O)OC(c3ccoc3)CC12C (single isomer, unassigned) [RB-55-2, (22-R)-22-Chloro-22-methylsalvinorin A]
- Ki [1]: 58 ± 32 nM
- Ki [2]: > 3000 nM
- Relative Emax [3]: 98 +/− 8%
- EC50 [3]: 273 nM

Structure (SMILES): Oc1ccc2c3c1O[C@H]1c4[nH]c5c(c4C[C@@]4(O)[C@@H](C2)N(CC2CC2)CC[C@]314)C[C@@]1(O)[C@H]2Cc3ccc(O)c4c3[C@@]1(CCN2CC1CC1)[C@H]5O4 [Nor-BNI, nor-binaltorphimine, reference compound]
- antagonism of agonist-induced disruption of PPI ([4]; mouse, in vivo): antagonized salvinorin A and RB-64-induced disruption of PPI

Structure (SMILES): COC(=O)[C@@H]1C[C@H](OC(=O)CCl)C(=O)[C@H]2[C@@]1(C)CC[C@H]1C(=O)O[C@H](c3ccoc3)C[C@]21C [RB-48, 22-Chlorosalvinorin A]
- Ki [1]: 2.1 ± 0.8 nM
- Ki [2]: 32 ± 15 nM
- Relative Emax [3]: 85 ± 3%
- EC50 [3]: 0.19 ± 0.01 nM
- wash-resistant inhibition of binding (preliminary studies) [5]: resulted in wash-resistant inhibition of binding

Structure (SMILES): COC(=O)[C@@H]1C[C@H](OC(=O)CBr)C(=O)[C@H]2[C@@]1(C)CC[C@H]1C(=O)O[C@H](c3ccoc3)C[C@]21C [RB-50, 22-Bromosalvinorin A]
- Ki [1]: 1.5 ± 0.22 nM
- Ki [2]: 39.6 ± 11.6 nM
- Relative Emax [3]: 76 +/− 7%
- EC50 [3]: 11 nM
- irreversible inhibition of binding, tested as potential affinity ligand [5]: none showed significant irreversible inhibition of binding
- stability on storage [6]: highly unstable at room temperature

Structure (SMILES): COC(=O)C1CC(OC(=O)C(C)Cl)C(=O)C2C1(C)CCC1C(=O)OC(c3ccoc3)CC12C [RB-55, (22-R,S)-22-Chloro-22-methylsalvinorin A]
- Ki [1]: 21 ± 3 nM
- Ki [2]: 189 ± 70.1 nM
- Relative Emax [3]: 83 +/− 10%
- EC50 [3]: 35 nM

Structure (SMILES): COC(=O)[C@@H]1C[C@H](OC(=O)CSC#N)C(=O)[C@H]2[C@@]1(C)CC[C@H]1C(=O)O[C@H](c3ccoc3)C[C@]21C [RB-64, 22-Thiocyanatosalvinorin A]
- Emax ([3]; read-out: Relative Emax): 95 ± 2%
- maximum of KOR labeled [5]: 59%
- wash-resistant inhibition of KOR binding [5]: 82%
- EC50 ([5]; EC50 for wash-resistant inhibition of binding): 9000 nM
- Null Activity (mAmp displacement) ([4]; 0.005 mg/kg i.p., mice): 8.22 ± 3.73 mAmp displacement
- PPI responses to the 12- and 16-dB prepulses ([4]; 0.005 mg/kg, p < 0.010): depressed responses
- Null Activity (mAmp displacement) ([4]; 0.01 mg/kg i.p., mice): 16.81 ± 4.4 mAmp displacement
- Null Activity (mAmp displacement) ([4]; 0.05 mg/kg i.p., mice): 64.89 ± 10.88 mAmp displacement
- PPI responses to the 12- and 16-dB prepulses ([4]; 0.05 mg/kg, p < 0.052): increased the responses
- Null Activity (mAmp displacement) ([4]; 0.1 mg/kg i.p., mice): 51.6 ± 12.16 mAmp displacement
- overall PPI (overall inhibition) vs vehicle ([4]; 0.1 mg/kg i.p., p < 0.046): significant reduction in overall inhibition
- PPI to the 4 dB prepulse vs vehicle ([4]; 0.005, 0.01, or 0.05 mg/kg, p < 0.047): enhanced relative to vehicle
- overall PPI (overall inhibition) vs vehicle ([4]; 0.01 and 0.05 mg/kg i.p., p < 0.021): marked increases in overall inhibition
- PPI to the 8-dB prepulse vs vehicle ([4]; 0.01 and 0.05 mg/kg, p < 0.031): increased PPI to the 8-dB prepulse
- baseline startle activity [4]: dose-dependent parabolic changes in baseline startle activity
- prepulse-dependent PPI [4]: disrupted prepulse-dependent PPI at all prepulse intensities
- PPI responses to the 12- and 16-dB prepulses vs vehicle ([4]; highest dose (0.1 mg/kg), p < 0.003): significantly depressed compared to the vehicle control
- in vivo efficacy relative to salvinorin A ([4]; in vivo studies (PPI), mice): 20 fold
- null activity, in words ([4]; two highest doses (0.05, 0.1 mg/kg), compared to vehicle, p < 0.001): increased activity
- null activity, in words ([4]; two lower doses (0.005, 0.01 mg/kg)): little effect on null activity
- stability on storage [6]: stable compound and may be stored for prolonged time without decomposition

Structure (SMILES): COCC(=O)O[C@H]1C[C@@H](C(=O)OC)[C@]2(C)CC[C@H]3C(=O)O[C@H](c4ccoc4)C[C@]3(C)[C@H]2C1=O [RB-65, 22-Methoxysalvinorin A]
- Ki [1]: 5.7 ± 1.2 nM
- Ki [2]: 431 ± 54.1 nM
- Relative Emax [3]: 99 +/− 11%
- EC50 [3]: 67 nM

Structure (SMILES): COC(=O)C1CC(OC(=O)C(Cl)Cl)C(=O)C2C1(C)CCC1C(=O)OC(c3ccoc3)CC12C (stereo not shown) [RB-66, 22,22-Dichlorosalvinorin A]
- Ki [1]: 911 ± 170 nM
- Ki [2]: > 10000 nM
- Relative Emax [3]: 103 +/− 14%
- EC50 [3]: 1680 nM

Structure (SMILES): COC(=O)[C@@H]1C[C@H](OC(C)=O)C(=O)[C@H]2[C@@]1(C)CC[C@H]1C(=O)O[C@H](c3ccoc3)C[C@]21C [Salvinorin A, reference compound]
- effect on radioligand binding after incubation and washing (controls) [5]: did not substantially alter radioligand binding
- Null Activity (mAmp displacement) ([4]; 0.25 mg/kg i.p., mice): 19.44 ± 5.83 mAmp displacement
- Null Activity (mAmp displacement) ([4]; 0.5 mg/kg i.p., mice): 28.79 ± 3.99 mAmp displacement
- null activity, in words ([4]; 0.5 mg/kg, compared to all other doses and vehicle, p < 0.001): significant increases in null activity
- Null Activity (mAmp displacement) ([4]; 1.0 mg/kg i.p., mice): 13.63 ± 3.65 mAmp displacement
- PPI at the 8-, 12-, and 16-dB prepulses vs vehicle ([4]; 2 mg/kg): marked reductions in PPI
- PPI responses to 4 dB prepulse vs vehicle ([4]; 2 mg/kg): unchanged from the vehicle control
- Null Activity (mAmp displacement) ([4]; 2.0 mg/kg i.p., mice): 13.76 ± 3.65 mAmp displacement
- overall PPI (overall inhibition) vs vehicle ([4]; 2 mg/kg i.p., p < 0.044): significantly suppressed inhibition
- PPI responses at the 8- and 12-dB prepulses vs vehicle ([4]; 0.25, 0.5, or 1 mg/kg): similar
- overall PPI (overall inhibition) vs vehicle ([4]; 0.25, 0.5, or 1 mg/kg i.p.): similar
- PPI to the 4-dB prepulse vs vehicle ([4]; 0.25, 0.5 or 1 mg/kg, p < 0.051): increased PPI to the 4-dB prepulse
- baseline startle activity [4]: dose-dependent parabolic changes in baseline startle activity
- prepulse-dependent PPI [4]: disrupted prepulse-dependent PPI at all prepulse intensities
